Columns and labels:
Assay type in all cases: cell-based
[1] = target: T1, OPRM1-PK (Homo sapiens, UniProt P35372); assay: Arrestin-EA EFC agonist assay, U2OS cells expressing OPRM1-PK only
T1 construct: PK (beta-galactosidase ED); expressed in transfected cells; host or cells: U2OS
Method: (§2) For all assays, 10,000 cells per well were seeded in 20 μL media and incubated overnight in 1% Fetal Bovine Serum and appropriate basal media (F-12 or DMEM). For agonist assays, 5 μL compound was added to cells and incubated at Room Temp. […] Arrestin-EA complex formation with the GPCR was detected with 50% (v/v) of PathHunter Detection Reagent (Dx 93-0001, PathHunter reagents are available from DiscoveRx, Corp., Fremont, Calif.) (Lysis buffer active ingredient 2% CHAPS, Emerald II and Galacton star are from Applied Biosystems.) Data was read on Packard Victor 2 or PerkinElmer ViewLux readers and analyzed using GraphPad Prism 4.

[2] = target: T2, OPRD1-PK and OPRM1 (Homo sapiens, UniProt P35372); assay: Transactivation assay, CHO cells co-expressing OPRD1-PK and OPRM1 (FIG. 12C)
T2 construct: expressed in transfected cells; host or cells: CHO
T2 sequence (P35372 whole entry, species assumed): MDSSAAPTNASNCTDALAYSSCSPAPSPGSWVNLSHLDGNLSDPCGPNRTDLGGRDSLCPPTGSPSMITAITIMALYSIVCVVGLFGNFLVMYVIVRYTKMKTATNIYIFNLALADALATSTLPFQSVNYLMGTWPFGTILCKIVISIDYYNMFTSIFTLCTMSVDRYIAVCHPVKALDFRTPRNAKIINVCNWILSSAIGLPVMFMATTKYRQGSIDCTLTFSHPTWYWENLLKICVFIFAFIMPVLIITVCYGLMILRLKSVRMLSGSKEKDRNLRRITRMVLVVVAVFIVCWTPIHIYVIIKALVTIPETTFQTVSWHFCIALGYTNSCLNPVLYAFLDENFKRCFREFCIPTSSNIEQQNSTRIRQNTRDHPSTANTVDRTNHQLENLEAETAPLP
Method: as §2

[3] = target: T3, OPRD1-PK (Homo sapiens, UniProt P41143); assay: Arrestin-EA EFC agonist assay, CHO cells expressing OPRD1-PK (FIG. 12A)
T3 construct: cloning junction ISFEL + gly-ser linker […]; PK1 (mutated ED, H to R); expressed in transfected cells; host or cells: CHO
Method: as §2

[4] = target: T4, CCKAR-PK (Homo sapiens, UniProt P32238); assay: Calcium concentration in HEK cell line expressing CCKAR-PK and arrestin-EA (FIG. 10A, 10C)
T4 construct: PK (beta-galactosidase ED); expressed in transfected cells; host or cells: HEK
T4 sequence (P32238 1-428): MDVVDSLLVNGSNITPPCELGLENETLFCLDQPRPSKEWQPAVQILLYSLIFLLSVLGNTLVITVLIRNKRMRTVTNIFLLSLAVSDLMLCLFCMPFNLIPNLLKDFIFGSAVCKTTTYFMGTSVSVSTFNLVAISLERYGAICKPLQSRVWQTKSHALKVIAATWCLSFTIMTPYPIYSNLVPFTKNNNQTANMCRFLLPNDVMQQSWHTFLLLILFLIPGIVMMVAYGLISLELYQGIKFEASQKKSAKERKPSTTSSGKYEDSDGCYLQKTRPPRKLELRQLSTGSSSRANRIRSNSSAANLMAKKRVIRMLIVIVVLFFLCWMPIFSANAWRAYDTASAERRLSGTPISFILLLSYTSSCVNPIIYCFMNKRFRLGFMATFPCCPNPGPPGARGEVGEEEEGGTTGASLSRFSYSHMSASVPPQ

[5] = target: T4, CCKAR-PK; assay: Arrestin-EA binding to CCKAR-PK in HEK cell line (FIG. 10B, 10D)
Method: (§3) For all assays, 10,000 cells per well were seeded in 20 μL media and incubated overnight in 1% Fetal Bovine Serum and appropriate basal media (F-12 or DMEM). For agonist assays, 5 μL compound was added to cells and incubated at Room Temp. For antagonist assays, 5 μL 5× compound was added to cells and incubated at 37° C./5% CO2 for 10 minutes, after which 5 μL 6× agonist was added and incubated for 60 minutes at 37° C. Arrestin-EA complex formation with the GPCR was detected with 50% (v/v) of PathHunter Detection Reagent (Dx 93-0001, PathHunter reagents are available from DiscoveRx, Corp., Fremont, Calif.) (Lysis buffer active ingredient 2% CHAPS, Emerald II and Galacton star are from Applied Biosystems.) Data was read on Packard Victor 2 or PerkinElmer ViewLux readers and analyzed using GraphPad Prism 4.

[6] = target: T5, CHRM2 (Homo sapiens, UniProt P08172); assay: Arrestin-EA / GPCR-PK EFC screening assay, CHO Arrestin + CHRM2-PK2 (wild-type ED)
T5 construct: gly-ser flexible linker […]; expressed in transfected cells; host or cells: CHO
T5 sequence (P08172 1-466): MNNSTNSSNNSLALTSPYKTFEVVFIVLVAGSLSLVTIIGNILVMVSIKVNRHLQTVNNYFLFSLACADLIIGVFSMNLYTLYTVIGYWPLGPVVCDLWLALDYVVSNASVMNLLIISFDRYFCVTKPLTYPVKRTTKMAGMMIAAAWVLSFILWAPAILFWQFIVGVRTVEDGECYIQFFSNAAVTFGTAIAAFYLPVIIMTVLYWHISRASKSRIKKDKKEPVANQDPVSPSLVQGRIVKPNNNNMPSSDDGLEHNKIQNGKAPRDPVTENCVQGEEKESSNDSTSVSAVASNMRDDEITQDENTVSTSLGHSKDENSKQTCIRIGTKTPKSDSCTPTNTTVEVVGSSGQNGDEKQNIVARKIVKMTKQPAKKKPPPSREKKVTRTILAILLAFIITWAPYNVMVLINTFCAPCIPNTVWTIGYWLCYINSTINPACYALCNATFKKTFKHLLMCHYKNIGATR
Method: (§1) To perform the screening assay, 20 μl of cells in complete media or serum-free media (OPTI-MEM® Invitrogen Cat. #31985-070) were plated at 5, 10 and 15×10^3 cells per well in a white 384 well microplate and incubated at 37° C. overnight. Cells are allowed to adhere and grown overnight. Cells may be screened for their response in serum free or complete medium. Serial dilutions are then performed in serum-free medium or buffer for a volume of 25 μl. Depending on the candidate compound, the dilution may occur in the presence of 0.1% BSA or ≦1% final concentration of an organic solvent, e.g., DMSO and methanol. 5 μl of each candidate compound is added per well. The assay mixture is then incubated for 90 min at 37° C. 12.5 μl of the detection reagent is then added. The detection reagent is prepared by combining 1 part Galacton Star Substrate® with 5 parts Emerald II® Solution and 19 parts Path-Hunter Cell Assay Buffer (lysis buffer). The assay mixture is then incubated for 1 h at room temperature. Chemiluminescence is then read at 1.0 sec/well on PMT based instrument or 5-20 sec on an imager.

[7] = target: T5, CHRM2; assay: Arrestin-EA / GPCR-PK β-galactosidase EFC screening assay, CHRM2 fused to mutated ED (PK1)
Method: as §1

[8] = target: T6, OPRM1-PK and CCR2 (Homo sapiens, UniProt P41597); assay: Transactivation assay, U2OS cells co-expressing OPRM1-PK and CCR2 (FIG. 13A); details: CCR2 coexpressed with OPRM1-PK; FIG. 13 graph A
T6 construct: expressed in transfected cells; host or cells: U2OS
T6 sequence (P41597 whole entry, species assumed): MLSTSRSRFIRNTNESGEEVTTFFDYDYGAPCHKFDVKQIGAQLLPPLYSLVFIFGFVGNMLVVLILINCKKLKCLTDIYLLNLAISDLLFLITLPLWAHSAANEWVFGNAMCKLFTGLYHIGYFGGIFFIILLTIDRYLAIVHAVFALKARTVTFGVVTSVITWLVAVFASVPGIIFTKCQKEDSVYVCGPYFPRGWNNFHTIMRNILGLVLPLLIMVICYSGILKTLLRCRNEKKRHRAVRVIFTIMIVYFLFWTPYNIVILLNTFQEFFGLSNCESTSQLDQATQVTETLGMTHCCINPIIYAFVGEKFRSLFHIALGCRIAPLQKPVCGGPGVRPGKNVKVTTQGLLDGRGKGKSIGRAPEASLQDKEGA
Method: as §2

[9] = target: T7, OPRM1-PK and CCR5 (Homo sapiens, UniProt P51681); assay: Transactivation assay, U2OS cells co-expressing OPRM1-PK and CCR5 (FIG. 13B); details: CCR5 coexpressed with OPRM1-PK; FIG. 13 graph B
T7 construct: expressed in transfected cells; host or cells: U2OS
T7 sequence (P51681 whole entry, species assumed): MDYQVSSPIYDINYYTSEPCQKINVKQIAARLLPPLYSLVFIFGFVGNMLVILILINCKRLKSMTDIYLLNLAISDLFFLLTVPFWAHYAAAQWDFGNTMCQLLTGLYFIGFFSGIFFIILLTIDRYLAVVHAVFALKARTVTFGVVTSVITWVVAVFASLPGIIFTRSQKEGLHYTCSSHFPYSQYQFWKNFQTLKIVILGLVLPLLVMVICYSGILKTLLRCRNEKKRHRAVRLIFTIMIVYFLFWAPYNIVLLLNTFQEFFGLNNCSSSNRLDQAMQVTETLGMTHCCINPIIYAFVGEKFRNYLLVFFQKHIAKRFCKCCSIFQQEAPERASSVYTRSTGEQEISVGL
Method: as §3

[10] = curve fit, signal, U2OS OPRM1-PK only
[11] = curve fit, chemiluminescence signal, FIG. 4

T1 sequence (P35372 whole entry): as the sequence (P35372 whole entry, species assumed) above

Question: What does the source list for CC(C)C[C@@H](NC(=O)[C@H](Cc1ccccc1)NC(=O)CNC(=O)[C@@H](C)NC(=O)[C@@H](N)Cc1ccc(O)cc1)C(=O)O [DADLE]?
Answer: HILLSLOPE ([1]; U2OS OPRM1-PK only): 1.483; BOTTOM [1, 10]: 625.6; TOP [1, 10]: 17070; S:B ([1]; signal to background, U2OS OPRM1-PK only): [S:B = 32.7]

Question: What does the source list for C[C@@H](NC(=O)[C@@H](N)Cc1ccc(O)cc1)C(=O)NCC(=O)N(C)[C@@H](Cc1ccccc1)C(=O)NCCO [DAMAGO, [D-Ala2,N-Me-Phe4,Gly5-ol]-enkephalin]?
Answer: HILLSLOPE ([2]; FIG. 12C): 1.571; transactivation response ([2]; cells expressing OPRD1-PK and OPRM1): lack of response; BOTTOM ([2]; curve fit, signal, FIG. 12C): 20.31; TOP ([2]; curve fit, signal, FIG. 12C): 201.4; S:B ([2]; signal to background, FIG. 12C): [S:B = 31.9]; HILLSLOPE ([3]; FIG. 12A): 1.293; response ([3]; cells expressing only OPRD1-PK): absence of response; BOTTOM ([3]; curve fit, signal, FIG. 12A): 519.8; TOP ([3]; curve fit, signal, FIG. 12A): 2809; HILLSLOPE ([1]; U2OS OPRM1-PK only): 0.7069; arrestin-EA binding response ([1]; cells expressing only OPRM1-PK): presence of response; TOP [1, 10]: 10875

Question: With C[N+](C)(C)CCOC(N)=O [carbachol] as the compound, how does the “effect on calcium concentration” value [4] read?
Answer: The value was “some effect”.

Question: And the “effect on the binding of arrestin-EA to CCKAR-PK” value [5]?
Answer: Its value is “substantially no effect”.

Question: O=C1CCCN1CC#CCN1CCCC1 [oxotremorine] was tested. Which EC50 ([6]; FIG. 4) did it give?
Answer: Its EC50 is 6.29 µM.

Question: What about the HILLSLOPE ([6]; FIG. 4) of the same compound?
Answer: The HILLSLOPE was 1.183.

Question: And the “response with PK2” value ([6]; FIG. 4)?
Answer: Its value is “robust response”.

Question: What about the BOTTOM [6, 11] of the same compound?
Answer: Its BOTTOM is 335.9.

Question: What about the TOP [6, 11] of the same compound?
Answer: The TOP was 2037.

Question: What about the “S:B PK2” value ([6]; signal to background ratio, CHRM2 fused to PK2, FIG. 1B) of the same compound?
Answer: Its value is 6.1.

Question: What about the “response with PK1” value ([7]; CHRM2, FIG. 4) of the same compound?
Answer: Its value is “no response”.

Question: What about the “fold response with PK1” value ([7]; CHRM2 fused to PK1, FIG. 1A) of the same compound?
Answer: Its value is 1.4 fold.

Question: What about the “S:B PK1” value ([7]; signal to background ratio, CHRM2 fused to PK1, FIG. 1A) of the same compound?
Answer: The value was 1.6.

Question: How did the “transactivation response” value [8] turn out when CCL3: ligand added to CCR5 cells was run?
Answer: The value was “no response”.

Question: What about the “transactivation response” value [9] of the same compound?
Answer: The value was “no response”.
